Source: US9334263B2, “Compositions useful for treating disorders related to kit” (BLUEPRINT MEDICINES CORPORATION, priority 2013, dated 2016)

Molecular target: T1, D816V Kit (Homo sapiens, UniProt P10721, D816V)
T1 construct: purchased Carna Bioscience 08-156
Experiment: Kit D816V assay at Km (Caliper electrophoretic mobility shift)
Type: biochemical
Conditions: 15 uM ATP, 25 C, 90 minutes
Summary of the method: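 Read-out is the ratio of phosphorylated to unphosphorylated fluorescent peptide, resolved by mobility shift on a Caliper EZ Reader 2.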

T1 sequence (P10721 26-976 D816V): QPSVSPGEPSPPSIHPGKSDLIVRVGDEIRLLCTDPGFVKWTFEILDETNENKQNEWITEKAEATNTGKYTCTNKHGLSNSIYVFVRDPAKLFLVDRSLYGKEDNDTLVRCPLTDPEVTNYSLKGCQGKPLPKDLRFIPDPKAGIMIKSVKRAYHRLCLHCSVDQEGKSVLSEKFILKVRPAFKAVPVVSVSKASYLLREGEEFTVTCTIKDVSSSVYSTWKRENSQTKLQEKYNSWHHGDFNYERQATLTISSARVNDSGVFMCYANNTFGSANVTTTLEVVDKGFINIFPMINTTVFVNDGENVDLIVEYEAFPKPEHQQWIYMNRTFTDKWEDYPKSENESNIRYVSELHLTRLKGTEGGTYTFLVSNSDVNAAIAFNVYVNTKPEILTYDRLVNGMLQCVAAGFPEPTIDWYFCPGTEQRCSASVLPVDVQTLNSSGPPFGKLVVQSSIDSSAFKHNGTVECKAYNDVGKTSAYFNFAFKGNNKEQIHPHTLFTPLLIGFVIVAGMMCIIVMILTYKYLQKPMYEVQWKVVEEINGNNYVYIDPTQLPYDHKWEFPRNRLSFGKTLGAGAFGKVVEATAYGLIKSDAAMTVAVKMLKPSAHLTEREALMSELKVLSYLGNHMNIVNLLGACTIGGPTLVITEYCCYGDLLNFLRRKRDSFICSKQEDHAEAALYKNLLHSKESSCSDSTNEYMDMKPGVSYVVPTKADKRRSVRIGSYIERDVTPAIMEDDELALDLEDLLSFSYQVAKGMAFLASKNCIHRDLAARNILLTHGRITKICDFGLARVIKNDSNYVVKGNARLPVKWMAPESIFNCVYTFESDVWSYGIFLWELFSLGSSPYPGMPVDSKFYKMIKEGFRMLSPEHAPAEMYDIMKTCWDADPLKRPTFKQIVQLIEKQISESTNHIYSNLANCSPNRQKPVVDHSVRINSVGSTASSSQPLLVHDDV

| IC50 [nM] | Compound |
| --- | --- |
| 1.01 to 10 | O[C@@H]1CCCN(c2ccc(Nc3ncnc(N4CCN(c5ncc(Cc6ccc(F)cc6)cn5)CC4)n3)cc2)C1 [Compound 239] |
| < 1 | C[C@H](O)Cn1cc(Nc2ncnc(N3CCN(c4ncc(Sc5ccc(F)cc5)cn4)CC3)n2)cn1 [Compound 101] |
| < 1 | CC(=O)Nc1cccc(Nc2ncnc(N3CCN(c4ncc(Cc5ccccc5)cn4)CC3)n2)c1 [Compound 47] |
| < 1 | CNCCCn1cc(Nc2ncnc(N3CCN(c4ncc(Cc5ccccc5)cn4)CC3)n2)cn1 [Compound 61] |
| < 1 | OC[C@H](O)c1ccc(Nc2ncnc(N3CCN(c4ncc(Cc5ccccc5)cn4)CC3)n2)cc1 (single isomer, unassigned) [Compound 57] |
| < 1 | Oc1nc(N2CCN(c3ncnc(Nc4ccc5c(c4)CNCC5)n3)CC2)ncc1Cc1ccccc1 [Compound 75] |
| < 1 | CNC(C)c1cccc(Nc2ncnc(N3CCN(c4ncc(Cc5ccccc5)cn4)CC3)n2)c1 (centres unmarked) [Compound 48] |
| < 1 | CN(C)CCCn1cc(Nc2ncnc(N3CCN(c4ncc(Cc5ccccc5)cn4)CC3)n2)cn1 [Compound 88] |
| < 1 | CNCCn1cc(Nc2ncnc(N3CCN(c4ncc(Cc5ccccc5)cn4)CC3)n2)cn1 [Compound 30] |
| < 1 | c1ccc(Cc2cnc(N3CCN(c4ncnc(Nc5cnn([C@@H]6CCNC6)c5)n4)CC3)nc2)cc1 (single isomer, unassigned) [Compound 53] |
| < 1 | CC(C)(O)Cn1cc(Nc2ncnc(N3CCN(c4ncc(Sc5ccc(F)cc5)cn4)CC3)n2)cn1 [Compound 149] |
| < 1 | c1ccc(Cc2cnc(N3CCN(c4ncnc(Nc5cnn(C[C@@H]6CNCCO6)c5)n4)CC3)nc2)cc1 [Compound 124] |
| 1.01 to 10 | CC(C)(c1ccccc1)c1cnc(N2CCN(c3ncnc(Nc4ccc(N5CCC[C@@H](O)C5)cc4)n3)CC2)nc1 [Compound 263] |
| 1.01 to 10 | O=C1CCc2ccc(Nc3ncnc(N4CCN(c5ncc(Cc6ccccc6)cn5)CC4)n3)cc2N1 [Compound 68] |
| < 1 | c1ccc(Cc2cnc(N3CCN(c4ncnc(Nc5cnn([C@H]6CCNC6)c5)n4)CC3)nc2)cc1 [Compound 52] |
| < 1 | c1ccc(Cc2cnc(N3CCN(c4ncnc(Nc5cnn(CC6CCCNC6)c5)n4)CC3)nc2)cc1 (centres unmarked) [Compound 117] |
| < 1 | Fc1ccc(Sc2cnc(N3CCN(c4ncnc(Nc5cnn(C[C@@H]6CNCCO6)c5)n4)CC3)nc2)cc1 [Compound 256] |
| 1.01 to 10 | C[C@]1(O)CCCN(c2ccc(Nc3ncnc(N4CCN(c5ncc(Cc6ccccc6)cn5)CC4)n3)cc2)C1 (single isomer, unassigned) [Compound 226] |
| < 1 | OC[C@@H](O)c1ccc(Nc2ncnc(N3CCN(c4ncc(Cc5ccccc5)cn4)CC3)n2)cc1 (single isomer, unassigned) [Compound 56] |
| < 1 | CN1CCN(Cc2cccc(Nc3ncnc(N4CCN(c5ncc(Cc6ccccc6)cn5)CC4)n3)c2)CC1 [Compound 211] |

Molecular target: T2, Kit D816V (HMC1.2 cells, Kit V560G and D816V) (Homo sapiens, UniProt P10721, D816V/V560G)
T2 construct: endogenous in cells; host or cells: HMC1.2 cells
Experiment: HMC1.2 autophosphorylation assay (AlphaLISA, phospho-Y719 c-Kit)
Type: cell-based
Conditions: Kit autophosphorylation at tyrosine 719, 90 minutes, read-out: Cellular Activity
Summary of the method: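 Serum-starved (overnight, serum-free IMDM) HMC1.2 cells were treated for 90 min with a 10-point compound series (25 uM–95.4 pM, 0.25% DMSO final). Lysates were probed with phospho-Y719 and total c-Kit antibodies (15 nM final) plus AlphaLISA acceptor and streptavidin donor beads (2 h each, RT), with AlphaScreen read-out.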

T2 sequence (P10721 26-976 V560G/D816V): as the sequence (P10721 26-976 D816V) above, with V535G counted along it

| IC50 [nM] | Compound |
| --- | --- |
| 10 to 100 | O[C@@H]1CCCN(c2ccc(Nc3ncnc(N4CCN(c5ncc(Cc6ccc(F)cc6)cn5)CC4)n3)cc2)C1 [Compound 239] |
| < 10 | C[C@H](O)Cn1cc(Nc2ncnc(N3CCN(c4ncc(Sc5ccc(F)cc5)cn4)CC3)n2)cn1 [Compound 101] |
| 10 to 100 | CC(=O)Nc1cccc(Nc2ncnc(N3CCN(c4ncc(Cc5ccccc5)cn4)CC3)n2)c1 [Compound 47] |
| 10 to 100 | CNCCCn1cc(Nc2ncnc(N3CCN(c4ncc(Cc5ccccc5)cn4)CC3)n2)cn1 [Compound 61] |
| 10 to 100 | OC[C@H](O)c1ccc(Nc2ncnc(N3CCN(c4ncc(Cc5ccccc5)cn4)CC3)n2)cc1 (single isomer, unassigned) [Compound 57] |
| 10 to 100 | Oc1nc(N2CCN(c3ncnc(Nc4ccc5c(c4)CNCC5)n3)CC2)ncc1Cc1ccccc1 [Compound 75] |
| 10 to 100 | CNC(C)c1cccc(Nc2ncnc(N3CCN(c4ncc(Cc5ccccc5)cn4)CC3)n2)c1 (centres unmarked) [Compound 48] |
| 10 to 100 | CN(C)CCCn1cc(Nc2ncnc(N3CCN(c4ncc(Cc5ccccc5)cn4)CC3)n2)cn1 [Compound 88] |
| 10 to 100 | CNCCn1cc(Nc2ncnc(N3CCN(c4ncc(Cc5ccccc5)cn4)CC3)n2)cn1 [Compound 30] |
| 10 to 100 | c1ccc(Cc2cnc(N3CCN(c4ncnc(Nc5cnn([C@@H]6CCNC6)c5)n4)CC3)nc2)cc1 (single isomer, unassigned) [Compound 53] |
| 10 to 100 | CC(C)(O)Cn1cc(Nc2ncnc(N3CCN(c4ncc(Sc5ccc(F)cc5)cn4)CC3)n2)cn1 [Compound 149] |
| 10 to 100 | c1ccc(Cc2cnc(N3CCN(c4ncnc(Nc5cnn(C[C@@H]6CNCCO6)c5)n4)CC3)nc2)cc1 [Compound 124] |
| 10 to 100 | CC(C)(c1ccccc1)c1cnc(N2CCN(c3ncnc(Nc4ccc(N5CCC[C@@H](O)C5)cc4)n3)CC2)nc1 [Compound 263] |
| 10 to 100 | O=C1CCc2ccc(Nc3ncnc(N4CCN(c5ncc(Cc6ccccc6)cn5)CC4)n3)cc2N1 [Compound 68] |
| 10 to 100 | c1ccc(Cc2cnc(N3CCN(c4ncnc(Nc5cnn([C@H]6CCNC6)c5)n4)CC3)nc2)cc1 [Compound 52] |
| 10 to 100 | c1ccc(Cc2cnc(N3CCN(c4ncnc(Nc5cnn(CC6CCCNC6)c5)n4)CC3)nc2)cc1 (centres unmarked) [Compound 117] |
| 10 to 100 | Fc1ccc(Sc2cnc(N3CCN(c4ncnc(Nc5cnn(C[C@@H]6CNCCO6)c5)n4)CC3)nc2)cc1 [Compound 256] |
| 10 to 100 | C[C@]1(O)CCCN(c2ccc(Nc3ncnc(N4CCN(c5ncc(Cc6ccccc6)cn5)CC4)n3)cc2)C1 (single isomer, unassigned) [Compound 226] |
| 10 to 100 | OC[C@@H](O)c1ccc(Nc2ncnc(N3CCN(c4ncc(Cc5ccccc5)cn4)CC3)n2)cc1 (single isomer, unassigned) [Compound 56] |
| 10 to 100 | CN1CCN(Cc2cccc(Nc3ncnc(N4CCN(c5ncc(Cc6ccccc6)cn5)CC4)n3)c2)CC1 [Compound 211] |

Molecular target: T3, PDGFRA D842V (Homo sapiens, UniProt P16234, D842V)
T3 construct: purchased ProQinase 0761-0000-1
Experiment: PDGFRA D842V assay at Km (Caliper electrophoretic mobility shift)
Type: biochemical
Conditions: 15 uM ATP, 25 C, 90 minutes; read-out: PDFGRA D842V
Experimental: (§1) In order to assess the activity of chemical compounds against the relevant kinase of interest, the Caliper LifeSciences electrophoretic mobility shift technology platform is used. Fluorescently labeled substrate peptide is incubated in the presence of kinase and ATP so that a […] proportion of the peptide is phosphorylated. At the end of the reaction, the mix of phosphorylated (product) and non-phosphorylated (substrate) peptides are passed through the microfluidic system of the Caliper EZ Reader 2, under an applied potential difference. The presence of the phosphate group on the product peptide provides a difference in mass and charge between those of the substrate peptide, resulting in a separation of the substrate and product pools in the sample. As the pools pass a LEDS within the instrument, these pools are detected and resolved as separate peaks. The ratio between these peaks therefore reflects the activity of the chemical matter at that concentration in that well, under those conditions.
(§2) The reaction was stopped by the addition of 70 ul of Stop buffer (100 mM HEPES pH 7.5, 0.015% Brij 35, 35 mM EDTA and 0.2% of Coating Reagent 3 (Caliper Lifesciences)). The plate was then read on a Caliper EZReader 2 (protocol settings: −1.9 psi, upstream voltage −500, downstream voltage −3000, post sample sip 38 s).

T3 sequence (P16234 24-1089 D842V): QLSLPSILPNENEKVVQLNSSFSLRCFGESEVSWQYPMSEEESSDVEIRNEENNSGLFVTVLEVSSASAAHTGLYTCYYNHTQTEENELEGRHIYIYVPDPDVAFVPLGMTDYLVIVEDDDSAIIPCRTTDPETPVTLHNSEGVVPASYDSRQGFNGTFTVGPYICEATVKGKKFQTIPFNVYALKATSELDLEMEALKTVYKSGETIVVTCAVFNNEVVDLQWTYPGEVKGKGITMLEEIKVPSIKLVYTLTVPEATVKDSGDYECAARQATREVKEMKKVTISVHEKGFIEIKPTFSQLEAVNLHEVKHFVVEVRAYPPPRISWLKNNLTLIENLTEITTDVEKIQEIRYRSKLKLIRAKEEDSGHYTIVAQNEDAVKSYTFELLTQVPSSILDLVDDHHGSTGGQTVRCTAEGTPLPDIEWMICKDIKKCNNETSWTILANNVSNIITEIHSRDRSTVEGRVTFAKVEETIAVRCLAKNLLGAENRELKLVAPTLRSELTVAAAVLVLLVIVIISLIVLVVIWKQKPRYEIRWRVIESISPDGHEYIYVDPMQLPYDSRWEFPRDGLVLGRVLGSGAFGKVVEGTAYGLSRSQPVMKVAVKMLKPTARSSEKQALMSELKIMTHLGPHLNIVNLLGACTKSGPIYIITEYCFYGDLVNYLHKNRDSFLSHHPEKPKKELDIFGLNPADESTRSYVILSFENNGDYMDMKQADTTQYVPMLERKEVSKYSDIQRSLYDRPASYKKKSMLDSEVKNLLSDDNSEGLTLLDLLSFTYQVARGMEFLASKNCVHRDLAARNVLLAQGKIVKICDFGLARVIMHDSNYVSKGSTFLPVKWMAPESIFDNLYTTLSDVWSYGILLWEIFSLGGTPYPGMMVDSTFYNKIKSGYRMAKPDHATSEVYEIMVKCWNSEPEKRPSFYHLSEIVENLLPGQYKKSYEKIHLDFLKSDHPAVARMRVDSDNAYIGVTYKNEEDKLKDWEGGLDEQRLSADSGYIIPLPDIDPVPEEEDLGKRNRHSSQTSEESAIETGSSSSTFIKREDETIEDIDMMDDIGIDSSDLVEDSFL

| IC50 [nM] | Compound |
| --- | --- |
| 1.01 to 10 | O[C@@H]1CCCN(c2ccc(Nc3ncnc(N4CCN(c5ncc(Cc6ccc(F)cc6)cn5)CC4)n3)cc2)C1 [Compound 239] |
| < 1 | C[C@H](O)Cn1cc(Nc2ncnc(N3CCN(c4ncc(Sc5ccc(F)cc5)cn4)CC3)n2)cn1 [Compound 101] |
| < 1 | CC(=O)Nc1cccc(Nc2ncnc(N3CCN(c4ncc(Cc5ccccc5)cn4)CC3)n2)c1 [Compound 47] |
| < 1 | CNCCCn1cc(Nc2ncnc(N3CCN(c4ncc(Cc5ccccc5)cn4)CC3)n2)cn1 [Compound 61] |
| 1.01 to 10 | OC[C@H](O)c1ccc(Nc2ncnc(N3CCN(c4ncc(Cc5ccccc5)cn4)CC3)n2)cc1 (single isomer, unassigned) [Compound 57] |
| < 1 | Oc1nc(N2CCN(c3ncnc(Nc4ccc5c(c4)CNCC5)n3)CC2)ncc1Cc1ccccc1 [Compound 75] |
| < 1 | CNC(C)c1cccc(Nc2ncnc(N3CCN(c4ncc(Cc5ccccc5)cn4)CC3)n2)c1 (centres unmarked) [Compound 48] |
| < 1 | CN(C)CCCn1cc(Nc2ncnc(N3CCN(c4ncc(Cc5ccccc5)cn4)CC3)n2)cn1 [Compound 88] |
| < 1 | CNCCn1cc(Nc2ncnc(N3CCN(c4ncc(Cc5ccccc5)cn4)CC3)n2)cn1 [Compound 30] |
| < 1 | c1ccc(Cc2cnc(N3CCN(c4ncnc(Nc5cnn([C@@H]6CCNC6)c5)n4)CC3)nc2)cc1 (single isomer, unassigned) [Compound 53] |
| 1.01 to 10 | CC(C)(O)Cn1cc(Nc2ncnc(N3CCN(c4ncc(Sc5ccc(F)cc5)cn4)CC3)n2)cn1 [Compound 149] |
| < 1 | c1ccc(Cc2cnc(N3CCN(c4ncnc(Nc5cnn(C[C@@H]6CNCCO6)c5)n4)CC3)nc2)cc1 [Compound 124] |
| 1.01 to 10 | CC(C)(c1ccccc1)c1cnc(N2CCN(c3ncnc(Nc4ccc(N5CCC[C@@H](O)C5)cc4)n3)CC2)nc1 [Compound 263] |
| < 1 | O=C1CCc2ccc(Nc3ncnc(N4CCN(c5ncc(Cc6ccccc6)cn5)CC4)n3)cc2N1 [Compound 68] |
| < 1 | c1ccc(Cc2cnc(N3CCN(c4ncnc(Nc5cnn([C@H]6CCNC6)c5)n4)CC3)nc2)cc1 [Compound 52] |
| < 1 | c1ccc(Cc2cnc(N3CCN(c4ncnc(Nc5cnn(CC6CCCNC6)c5)n4)CC3)nc2)cc1 (centres unmarked) [Compound 117] |
| 1.01 to 10 | Fc1ccc(Sc2cnc(N3CCN(c4ncnc(Nc5cnn(C[C@@H]6CNCCO6)c5)n4)CC3)nc2)cc1 [Compound 256] |
| 1.01 to 10 | C[C@]1(O)CCCN(c2ccc(Nc3ncnc(N4CCN(c5ncc(Cc6ccccc6)cn5)CC4)n3)cc2)C1 (single isomer, unassigned) [Compound 226] |
| < 1 | OC[C@@H](O)c1ccc(Nc2ncnc(N3CCN(c4ncc(Cc5ccccc5)cn4)CC3)n2)cc1 (single isomer, unassigned) [Compound 56] |
| 1.01 to 10 | CN1CCN(Cc2cccc(Nc3ncnc(N4CCN(c5ncc(Cc6ccccc6)cn5)CC4)n3)c2)CC1 [Compound 211] |

Molecular target: T4, wild type Kit (Homo sapiens, UniProt P10721)
T4 construct: purchased Carna Bioscience 08-156
Experiment: Kit wild type assay at Km (Caliper electrophoretic mobility shift)
Type: biochemical
Conditions: 400 uM ATP, 25 C, 90 minutes; read-out: WT KIT
Experimental: as §1
as §2, with “−700,” for “−500,”, “35” for “38”

T4 sequence (P10721 26-976): as the sequence (P10721 26-976 D816V) above, with V791D counted along it

| IC50 [nM] | Compound |
| --- | --- |
| 11 to 100 | CC(=O)Nc1cccc(Nc2ncnc(N3CCN(c4ncc(Cc5ccccc5)cn4)CC3)n2)c1 [Compound 47] |
| < 10 | CNCCCn1cc(Nc2ncnc(N3CCN(c4ncc(Cc5ccccc5)cn4)CC3)n2)cn1 [Compound 61] |
| < 10 | Oc1nc(N2CCN(c3ncnc(Nc4ccc5c(c4)CNCC5)n3)CC2)ncc1Cc1ccccc1 [Compound 75] |
| < 10 | CNC(C)c1cccc(Nc2ncnc(N3CCN(c4ncc(Cc5ccccc5)cn4)CC3)n2)c1 (centres unmarked) [Compound 48] |
| 11 to 100 | CN(C)CCCn1cc(Nc2ncnc(N3CCN(c4ncc(Cc5ccccc5)cn4)CC3)n2)cn1 [Compound 88] |
| 11 to 100 | CNCCn1cc(Nc2ncnc(N3CCN(c4ncc(Cc5ccccc5)cn4)CC3)n2)cn1 [Compound 30] |
| < 10 | c1ccc(Cc2cnc(N3CCN(c4ncnc(Nc5cnn([C@@H]6CCNC6)c5)n4)CC3)nc2)cc1 (single isomer, unassigned) [Compound 53] |
| < 10 | c1ccc(Cc2cnc(N3CCN(c4ncnc(Nc5cnn(C[C@@H]6CNCCO6)c5)n4)CC3)nc2)cc1 [Compound 124] |
| 11 to 100 | O=C1CCc2ccc(Nc3ncnc(N4CCN(c5ncc(Cc6ccccc6)cn5)CC4)n3)cc2N1 [Compound 68] |
| < 10 | c1ccc(Cc2cnc(N3CCN(c4ncnc(Nc5cnn([C@H]6CCNC6)c5)n4)CC3)nc2)cc1 [Compound 52] |
| < 10 | c1ccc(Cc2cnc(N3CCN(c4ncnc(Nc5cnn(CC6CCCNC6)c5)n4)CC3)nc2)cc1 (centres unmarked) [Compound 117] |
